In patent US20040014808A1, “Novel derivatives of carnosic acid” (priority 2002, published 2004):

Assay: DPPH free-radical scavenging assay
Type: biochemical
Conditions: 300 μM DPPH in methanol, room temperature, 30 min, read at 517 nm, mean of 3 observations; for IC50: read-out: IC50 (μM), concentration of sample required to scavenge 50% DPPH free radicals
Description: DPPH Radical Scavenging Assay. The DPPH free radical scavenging assay is based on the abilities of compounds to quench stable DPPH free radicals (Lee, S. K.; Mbwambo, Z. H.; Chung, H. S.; Luyengi, L.; Gamez, E. J. C.; Mehta, R. G.; Kinghorn, A. D.; Pezzuto, J. M. Comb. Chem. High Throughput Screen. 1998, 1, 35-46). Reaction mixtures (200 μL) were prepared by combining multiple concentrations of test sample in methanol (10 μL) with DPPH (Aldrich, Milwaukee, Wis.) in methanol (190 μL). The final DPPH concentration was 300 μM. The reaction mixtures were incubated in 96-well microtiter plates at room temperature for 30 min. After the reaction, reduction of the radical was then measured at 517 nm. Percent inhibition by sample treatment was determined by comparison with controls containing no test samples. IC50 values denote the concentration of sample, required to scavenge 50% DPPH free radicals (Ibid.).

Row | SMILES | IC50 (μg/mL), concentration of sample required to scavenge 50% DPPH free radicals [µg/mL] | IC50 [µM]
1 | O=C1O[C@H]([C@@H](O)CO)C(O)=C1O [Ascorbic acid] | 11.8 | 66.8
2 | CC(C)c1cc2c(c(O)c1O)[C@@]1(C(=O)O)CCCC(C)(C)[C@@H]1CC2 [Compound 1, carnosic acid] | 18.7 | 53.3
3 | COc1c(C(C)C)cc2c(c1O)C1(CO)CCCC(C)(C)C1CC2 (centres unmarked) [Compound 4, 11,20-dihydroxy-12-methoxy-abiet-8,11,13-triene] | 27.7 | 83.4
4 | CC(C)c1cc2c(c(O)c1O)[C@@]13CCCC(C)(C)[C@@H]1C[C@@H]2OC3=O [Compound 5, 11,12-dihydroxy-7-10-(epoxymethano)-abiet-8,11,13-triene-20-one] | 37.9 | 114
5 | CC1(C)CCCC23C(=O)OC(CC12)c1cc(C(CO)CO)c(O)c(O)c13 (centres unmarked) [Compound 6, 11,12,16,17-tetrahydroxy-7-10-(epoxymethano)-abiet-8,11,13-triene-20-one] | 23.9 | 66
6 | CCCOC(=O)c1cc(O)c(O)c(O)c1 [Propyl gallate] | 9.8 | 46.1
7 | Oc1cccc(O)c1O [Pyrogallol] | 4.8 | 37.8
